Inhibition in vivo, GOT inhibition and GPT inhibition data for three compounds are collected here from US6048882A, “Prophylactic and therapeutic agent for hepatic diseases” (Nisshin Flour Milling Co., Ltd., priority 1995, dated 2000).

The structures appear in SMILES notation. Structures can show the parent of a compound that is named as a salt. Where two headings read alike, the source gives them in different places.

Experiment [1] deals with experimental hepatopathy models prepared by D-galactosamine administration. The experiment in a line: Inhibitory action on hepatopathy in hepatopathy models by D-galactosamine (serum GPT and GOT). The conditions noted are these: iv, 24 h, lipid emulsion, i.v., dose 10 μg/kg, 2 hours after D-galactosamine. Format: in vivo, Wistar strain male mice. As for the experimental part: (§1) In these tests, GPT (glutamic-pyruvic transaminase) and GOT (glutamic-oxaloacetic transaminase) were determined using kits for the determination of GPT and GOT upon the method by U. Lippi et al., Iatrozyme TA-Lq (available from Iatron Laboratories Inc.), wherein the NADH formed when enzymes act upon substrates can reduce nitrotetrazolium blue (NTB) via 1-methoxy-5-methylphenazinium methylsulfate (1-methoxy PMS) to form formazan, which is then subjected to colorimetric analysis at a wavelength of 560 nm.
Inhibitory action of lipid emulsions containing the present isoprenylamine derivatives was evaluated by inhibition rates of GPT and GOT in experimental hepatopathy models prepared by D-galactosamine administration.
The experimental hepatopathy model was prepared by intraperitoneal administration of D-galactosamine at 400 mg/kg to Wistar strain male […] weighing about 170 g. The present isoprenylamine derivative was formulated to a lipid emulsion according to the method described in Pharmaceutical Example 8, and was intravenously administered at a dose of 10-30 μg/kg 2 hours after the administration of D-galactosamine.
24 hours after the D-galactosamine administration, blood samples were collected form animals under ether anesthesia and centrifuged. Then, serum GPT and GOT were determined and the respective inhibition rates were calculated on the bases of the serum GPT and GOT values obtained when the present isoprenylamine derivatives were not administered being defined as 100, respectively.
For comparison, glycyrrhizin ammonium (Tokyo Kasei Co.) dissolved in distilled water was administered in a similar manner to that for the isoprenylamine derivatives, blood sampling and determination were conducted and the serum GPT and GOT inhibition rates were calculated.

Experiment [2] relates to experimental hepatopathy models prepared by administering carbon tetrachloride. The experiment is described as follows: Inhibitory action on hepatopathy in hepatopathy models by carbon tetrachloride (lipid emulsion; serum GPT and GOT). The format is in vivo, ddY strain male mice. The conditions noted are these: Mus musculus, iv, 20 h, i.v., one hour before carbon tetrachloride; for inhibition in vivo at 0.001 mg/kg: dose 1 μg/kg; for inhibition in vivo at 0.0001 mg/kg: dose 0.1 μg/kg. The protocol: Carbon tetrachloride was diluted with olive oil to a concentration of 0.5% when administered. The present isoprenylamine derivatives were formulated into the lipid emulsions according to the method described in Pharmaceutical Example 8 and intravenously administered at a dose of 0.1-10 μg/kg one hour before the administration of carbon tetrachloride. 20 hours after the administration of carbon tetrachloride, blood samples were collected from animals under ether anesthesia and centrifuged. Then, serum GPT and GOT were determined and the respective inhibition rates were calculated on the bases of the serum GPT and GOT values obtained when the present isoprenylamine derivative was not administered being defined as 100, respectively.

For experiment [3] the test system is unchanged. The experiment is described as follows: Inhibitory action on hepatopathy in hepatopathy models by carbon tetrachloride (suspension with 2% Tween 80; serum GPT and GOT). Format: in vivo, ddY strain male mice. The conditions noted are these: suspension with 2% Tween 80, i.v., dose 0.1 mg/kg, one hour before carbon tetrachloride. The protocol: as §1
Inhibitory actions of the present isoprenylamine derivatives was evaluated by inhibition rates of GPT and GOT in experimental hepatopathy models prepared by administering carbon tetrachloride.
The experimental hepatopathy model was prepared by intraperitoneal administration of 0.02 ml/kg carbon tetrachloride to ddY strain male mice (6 weeks old, body weight of about 30 g). Carbon tetrachloride was diluted with olive oil to a concentration of 0.5% when administered. […]
20 hours after the administration of carbon tetrachloride, blood samples were collected from animals under ether anesthesia and centrifuged. Then, serum GPT and GOT were determined and the respective inhibition rates were calculated on the bases of the serum GPT and GOT values obtained when Compound 6 was not administered being defined as 100, respectively.

As for `CC(C)=CCC/C(C)=C/CC/C(C)=C/CC/C(C)=C/CC/C(C)=C/CC/C(C)=C/CC/C(C)=C/CNCc1ccc2c(c1)OCO2` [Compound 4, N-farnesylgeranylgeranylpiperonylamine hydrochloride], the inhibition in vivo at 0.01 mg/kg in experiment [1] (read-out: GOT inhibition) was determined as 31%; in experiment [1] (read-out: GPT inhibition) it was 30%. In addition, the inhibition in vivo at 0.001 mg/kg in experiment [2] (read-out: GOT inhibition) was 28%; in experiment [2] (read-out: GPT inhibition), 22%.
Regarding `CC(C)=CCC/C(C)=C/CC/C(C)=C/CC/C(C)=C/CC/C(C)=C/CC/C(C)=C/CC/C(C)=C/CC/C(C)=C/CC/C(C)=C/CNCc1ccc2c(c1)OCO2` [Compound 6, N-solanesylpiperonylamine hydrochloride], the inhibition in vivo at 0.01 mg/kg in experiment [1] (read-out: GOT inhibition) and in experiment [1] (read-out: GPT inhibition) was 40% throughout. For the same compound, in experiment [3], the GOT inhibition is recorded as 37%. This compound also had a GPT inhibition in experiment [3] of 34%. Moreover, the values for the inhibition in vivo at 0.001 mg/kg in experiment [2] (read-out: GOT inhibition) and in experiment [2] (read-out: GPT inhibition) were 50% and 40%, respectively.
As to `CC(C)=CCC/C(C)=C/CC/C(C)=C/CC/C(C)=C/CC/C(C)=C/CC/C(C)=C/CC/C(C)=C/CC/C(C)=C/CC/C(C)=C/CC/C(C)=C/CNCc1ccc2c(c1)OCO2` [Compound 20, N-decaprenylpiperonylamine hydrochloride], the inhibition in vivo at 0.01 mg/kg in experiment [1] (read-out: GOT inhibition) is 44%; in experiment [1] (read-out: GPT inhibition), 43%. In addition, the figures for the inhibition in vivo at 0.0001 mg/kg in experiment [2] (read-out: GOT inhibition) and in experiment [2] (read-out: GPT inhibition) were 53% and 60%, respectively.
